Legend:
Assay type in all cases: in vivo
burdock young plants = assay: Dwarfing test of burdock young plant; conditions: for Plant Height / Dwarfing Rate: 5 ml per cell on 4th day, measured 20th day; for Dwarfing Rate: vs comparative group
Experimental: (§1) 50 g of sodium tripolyphosphate was dissolved in 400 ml of distilled water at 80° C., 17.5 g of cinnamic acid was added to the sodium tripolyphosphate solution and dissolved by stirring, the resultant solution was diluted with distilled water until the total volume of solution was 500 ml, and thus 3.5% cinnamic acid aqueous solution (pH 6.5) was prepared. The aqueous solution was further diluted with distilled water 70 times or 17.5 times, and 0.05% cinnamic acid aqueous solution and 0.2% cinnamic acid aqueous solution were prepared, respectively.
(§2) Nursery soil for house use was filled into paper joint pots (each with 24 cells: 34×43×50 mm/cell), water was sufficiently given to the soil, and seeds of carrots were sowed. After seeding, the pot was placed in the same greenhouse as described above to sprout. Subsequently, on the 5th day, the cinnamic aqueous acid solutions were added to the nursery soil in the joint pots. One of the joint pots (24 cells) was prepared as a 0.05% cinnamic acid aqueous solution addition group, and 5 ml of the 0.05% cinnamic acid aqueous solution was added to the nursery soil of each cell. Another one of the join pots was prepared as a 0.2% cinnamic acid aqueous solution addition group, and 5 ml of the 0.2% cinnamic acid aqueous solution was added to the nursery soil of each cell. The other one of the joint pots was prepared as a comparative group in which 5 ml of water is added to each cell, instead of the cinnamic acid aqueous solution. Subsequently, the cultivation of carrot young plants in each group was continued under general conditions. On the 27th day, the heights of young plants in each group were measured, the dwarfing rate (%) was calculated, and the dwarfing effect of cinnamic acid aqueous solution on carrot young plants was examined. […].
In the same way as in Example 12 except that seeds of burdock were sowed, the dwarfing effect of cinnamic acid aqueous solution on burdock young plants was examined. […]

broccoli young plants = assay: Dwarfing test of broccoli young plant; conditions: for Plant Height / Dwarfing Rate: 5 ml per cell on 4th day, measured 20th day; for Dwarfing Rate: vs comparative group
Experimental: as §1, §2
In the same way as in Example 12 except that seeds of broccoli were sowed, the dwarfing effect of cinnamic acid aqueous solution on broccoli young plants was examined. […]

radish young plants = assay: Dwarfing test of radish young plant; conditions: for Plant Height / Dwarfing Rate: 5 ml per cell on 4th day, measured 20th day; for Dwarfing Rate: vs comparative group
Experimental: as §1, §2
In the same way as in Example 12 except that seeds of radish were sowed, the dwarfing effect of cinnamic acid aqueous solution on radish young plants was examined. […]

[1] = tested on: Cucumis melo var. makuwa young plants; assay: Dwarfing test of Cucumis melo var. makuwa young plant; conditions: for Plant Height / Dwarfing Rate: 5 ml per cell on 7th day, measured 27th day; for Dwarfing Rate: vs comparative group
Experimental: as §1, §2
(§3) In the same way as in Example 12 except that seeds of tomato were sowed, and that the cinnamic acid solutions were added to the nursery soil of the joint pot on the 7th day, the dwarfing effect of cinnamic acid aqueous solution on tomato young plants was examined. […].
(§4) In the same way as in Example 17 except that seeds of watermelon were sowed, and that plant heights were measured on the 27th day, the dwarfing effect of cinnamic acid aqueous solution on watermelon young plants was examined. […].
In the same way as in Example 21 except that seeds of Cucumis melo var. makuwa were sowed, the dwarfing effect of cinnamic acid aqueous solution on Cucumis melo var. makuwa young plants was examined. […]

newmelon young plants = assay: Dwarfing test of newmelon young plant; conditions: for Plant Height / Dwarfing Rate: 5 ml per cell on 7th day, measured 27th day; for Dwarfing Rate: vs comparative group
Experimental: as §1, §2, §3, §4
In the same way as in Example 21 except that seeds of newmelon were sowed, the dwarfing effect of cinnamic acid aqueous solution on newmelon young plants was examined. […]

geranium young plants = assay: Dwarfing test of geranium young plant; conditions: for Plant Height / Dwarfing Rate: 100 ml per pot on 3rd day, measured 44th day; for Dwarfing Rate: vs comparative group
Source text: Dwarfing rate (%)=[(the plant height of the comparative group)−(the plant height of an addition group)/the plant height of the comparative group]×100 In addition, “plant height” in all the tables below was an average of heights from a surface of the soil of a pot used in each test to a head portion of the plant. 160 g of cinnamic acid, 80 g of dispersant (lignin sulfonic sodium) and 293 g of water were mixed, 1,800 g of glass beads (with diameters of 1 to 1.25 mm) were further added, the resultant was added into a vessel of a dispersion apparatus (RM test sand mill with six parallel barrels) and underwent dispersion processing at 120 rpm for three hours, and 30% cinnamic acid dispersion (with the average diameter of cinnamic acid of 0.3 μm) was prepared. The dispersion was diluted with distilled water 300 times or 3,000 times, and thus 0.1% cinnamic acid dispersion and 0.01% cinnamic acid dispersion were prepared, respectively. 30 pots of geranium young plants each with 10 to 12 leaves and a height of 7 cm ware purchased, and placed in a built-up indoor aluminum greenhouse (440×840×1500 mm) at 25° C. On the 3rd day, the cinnamic dispersions as described above were added to the geranium pots. Among 30 pots, 10 pots were prepared as a 0.01% cinnamic acid dispersion addition group, and 100 ml of the 0.01% cinnamic acid dispersion was added to the nursery soil of each pot. Another 10 pots were prepared as a 0.1% cinnamic acid dispersion addition group, and 100 ml of the 0.1% cinnamic acid dispersion was added to the nursery soil of each pot. Remaining 10 pots were prepared as a comparative group, and instead of the cinnamic dispersion, 100 ml of water was added to each pot. Then, the cultivation was continued on the pots in each group under general conditions. The cultivation was continued on geraniums of the pots in each group, and on the 24th day, geraniums in each group started blooming. The cultivation was further continued. On the 44th day after the placement, heights of geraniums of pots in each group were measured, the dwarfing rate (%) was calculated, and the dwarfing effect of cinnamic acid dispersion on geranium young plants was examined. From the results in Table 2, it became evident that the cinnamic acid dispersions are effective in dwarfing geranium young plants.

Compound: O=C(O)C=Cc1ccccc1 [cinnamic acid]
- Plant Height (burdock young plants; 0.05% aqueous solution): 4.9 cm
- Dwarfing Rate (burdock young plants; 0.05% aqueous solution): 21.0%
- Plant Height (burdock young plants; 0.2% aqueous solution): 4.3 cm
- Dwarfing Rate (burdock young plants; 0.2% aqueous solution): 30.6%
- dwarfing effect (burdock young plants; burdock young plants, 0.05% and 0.2% aqueous solutions): effective
- Plant Height (broccoli young plants; 0.05% aqueous solution): 8.8 cm
- Dwarfing Rate (broccoli young plants; 0.05% aqueous solution): 6.4%
- Plant Height (broccoli young plants; 0.2% aqueous solution): 6.4 cm
- Dwarfing Rate (broccoli young plants; 0.2% aqueous solution): 31.9%
- dwarfing effect (broccoli young plants; broccoli young plants, 0.05% and 0.2% aqueous solutions): effective
- Plant Height (radish young plants; 0.05% aqueous solution): 8.1 cm
- Dwarfing Rate (radish young plants; 0.05% aqueous solution): 11.0%
- Plant Height (radish young plants; 0.2% aqueous solution): 7.1 cm
- Dwarfing Rate (radish young plants; 0.2% aqueous solution): 22.0%
- dwarfing effect (radish young plants; radish young plants, 0.05% and 0.2% aqueous solutions): effective
- Plant Height ([1]; 0.05% aqueous solution): 6.1 cm
- Dwarfing Rate ([1]; 0.05% aqueous solution): 6.2%
- Plant Height ([1]; 0.2% aqueous solution): 4.7 cm
- Dwarfing Rate ([1]; 0.2% aqueous solution): 27.7%
- dwarfing effect ([1]; Cucumis melo var. makuwa young plants, 0.05% and 0.2% aqueous solutions): effective
- Plant Height (newmelon young plants; 0.05% aqueous solution): 7.3 cm
- Dwarfing Rate (newmelon young plants; 0.05% aqueous solution): 6.4%
- Plant Height (newmelon young plants; 0.2% aqueous solution): 4.9 cm
- Dwarfing Rate (newmelon young plants; 0.2% aqueous solution): 37.2%
- dwarfing effect (newmelon young plants; newmelon young plants, 0.05% and 0.2% aqueous solutions): effective
- Plant Height (geranium young plants; 0.01% dispersion): 13.5 cm
- Dwarfing Rate (geranium young plants; 0.01% dispersion): 12.9%
- Plant Height (geranium young plants; 0.1% dispersion): 6.1 cm
- Dwarfing Rate (geranium young plants; 0.1% dispersion): 60.6%
- dwarfing effect (geranium young plants; geranium young plants, 0.01% and 0.1% dispersions): effective
